We go through 1 molecule from patent US20210379026A1, “METHODS FOR TREATING OR PREVENTING SKIN CONDITIONS” (Drexel University, priority 2018, published 2021).

One test concerns human cells. The test is described as follows: Protection of cultured cells from UV-induced cell death. It is filed as cell-based. As to the method: Cells grown in the presence or absence of 1 nM rapamycin were exposed to increasing amounts of UV radiation and cell numbers were determined following 24 hours. […] In FIG. 9B, a representative photograph of the control culture 24 hours following UV is presented. Note the typical hallmarks of apoptosis including rounded floating cells and typical cell blebbing.

For the next test, the system named is p16. The test is described as follows: Nuclear p16 immunohistochemistry of human skin biopsies after topical treatment. The test is classed as in vivo. As to conditions: formulation of 1 micromolar rapamycin, 0.5 cc daily, 240 days, vs vehicle control; FIG. 1. The protocol: Human skin was treated with a formulation of 1 micromolar rapamycin or an identical formulation containing a vehicle control for 240 days. 0.5 cc of the formulation was applied daily. Skin biopsies (N=8) were processed for immunohistochemistry and nuclear p16 was quantified using the Leica Aperio software system.

In another test the test system is cytokeratin 5/6. The test is described as follows: Cytokeratin 5/6 staining of dorsal hand skin biopsies after topical cream. As to conditions: topical cream 10 μM vs placebo, dorsal hand biopsy; FIG. 5 and FIG. 6 (40×). The test is classed as in vivo, human. As to the method: (§1) Patients were provided with a proprietary topical formulation of rapamycin (0.001%; equivalent to 10 μM) or a placebo formulation that is identical with the exception that rapamycin was not included. For seborrheic keratosis, patients were instructed to apply the formulation to a localized area of the skin up to 1 cm around the lesion, in the evening before bed. Patients were instructed to apply the cream to the dorsal side of the hand once a day, in the evening before bed.
(§2) The cream included the following ingredients: Polyoxyethylene (40) stearate, Polyoxyethylene (20) sorbitan monooleate, glycerol monostearate, paraffin, cetyl alcohol, mineral oil, water, propylene glycol, sorbitol, glycerol, methylparaben.
Human skin biopsies from the dorsal hand of a patient following the application of a topical cream either containing rapamycin (10 μM) or placebo were stained with antibodies recognizing cytokeratin 5/6 (brown staining), which is a marker for basal cells in the epidermis.

Test [1] relates to human skin. The test is described as follows: Clinical appearance of the hand after rapamycin cream versus placebo-treated hand. The test is classed as in vivo. As to conditions: 10 μM (0.001%) cream, 6 months, person, placebo on left hand; FIG. 7. As to the method:
as §1, §2
(§3) Patients were provided with a 4 week supply of creams labeled by a number with no indication of whether they contained rapamycin. Patients were instructed to contact the study personnel if any irritation or negative reaction occurred at any time.
Placebo treated left hand is provided for comparison.

In test [2] the test system is human skin. The test is described as follows: Histology (Hematoxylin Eosin stain) of dorsal hand skin biopsies after topical cream. As to conditions: topical cream 10 μM vs placebo. It is filed as in vivo. The protocol: as §1, §2, §3
Hematoxylin Eosin stain of human skin biopsies from the dorsal hand of a patient following the application of a topical cream either containing rapamycin (10 μM) or placebo are shown in FIG. 2. Histologic evidence of actinic (solar) elastoses is indicated with an arrow.
40× magnified images of human skin biopsies from the dorsal hand of a patient following the application of a topical cream either containing rapamycin (10 μM) or placebo are shown in FIG. 3.
40× magnified images of human skin biopsies from the dorsal hand of a patient following the application of a topical cream either containing rapamycin (10 μM) or placebo are shown in FIG. 4.

The subject of another test is purpura. The test is described as follows: Recurrent purpura in a patient under topical treatment. As to conditions: 0.001%, 4.5 months, one person with recurrent purpura; FIG. 8. The test is classed as in vivo, human. As to the method:
as §1
A person was treated with rapamycin (0.001%) for 4.5 months. The patient was a cancer survivor, multiple round of chemotherapy, recurrent purpura with subsequent scarring. […] Treatment was discontinued at end of trial.

Where [3] appears, read: dorsal hand biopsy, 40× images, FIG. 4.

Molecules are shown by their SMILES. “Also recorded” adds a separate entry of the source.

Take `CO[C@H]1C[C@@H]2CC[C@@H](C)[C@@](O)(O2)C(=O)C(=O)N2CCCC[C@H]2C(=O)O[C@H]([C@H](C)C[C@@H]2CC[C@@H](O)[C@H](OC)C2)CC(=O)[C@H](C)/C=C(\C)[C@@H](O)[C@@H](OC)C(=O)[C@H](C)C[C@H](C)/C=C/C=C/C=C/1C` [rapamycin]: the “cell death following UV irradiation (percent cell loss)” value with human cells (1 nM rapamycin, increasing amounts of UV radiation, cell numbers after 24 hours, P=0.0044, FIG. 9A) is “reduction in cell death”. Further, the “apoptotic cells in culture after UV” value in the test on human cells (culture grown in 1 nM rapamycin, 24 hours following UV, FIG. 9C) was “notable lack of apoptotic cells”. Besides, the “p16 levels in human skin (nuclear p16, immunohistochemistry)” value with p16 is given as “reduced the p16 levels in human skin”. Also, the “location of cytokeratin 5/6 (CK 5/6) staining in the epidermis” value in the test on cytokeratin 5/6 is “more focally located in the basal layer of the skin; also recorded: remained restricted to the basal layer”. In addition, the “clinical improvement of the hand” value in the test with human skin [1] is given as “clinical improvement”. The “histological markers of aged/damaged skin (actinic (solar) elastoses)” value with human skin [2] (dorsal hand biopsies, multiple patients, FIG. 2) was “a reduction in the presence of these histological markers of aged/damaged skin”. Moreover, the “arrangement of the epithelial layer” value with human skin [2] (dorsal hand biopsy, 40× images, FIG. 3) is reported as “more orderly arrangement of the epithelial layer”. In the test with human skin [2] (setting [3]), the “arrangement of collagen fibers” value is reported as “more orderly arrangement of collagen fibers” and the solar elastoses entry is on record as “fewer solar elastoses”. In addition, in the test with purpura, the purpura result is “significant reduction in purpura”.
